# ChEMBL document CHEMBL3091310, “Pseudo-cyclization through intramolecular hydrogen bond enables discovery of pyridine substituted pyrimidines as new Mer kinase inhibitors” (J Med Chem, 2013)
# How the values were obtained:
# in vivo [1] = conditions: mouse, iv, 3 mg/kg
# in vivo [2] = conditions: mouse, po, 3 mg/kg
# in vivo [3] = conditions: mouse, iv, 3 mg/kg; remark: listed apart in the source
# in vivo [4] = conditions: mouse, po, 3 mg/kg; remark: listed apart in the source
# in vivo [5] = conditions: mouse, iv, 3 mg/kg; remark: listed apart in the source
# in vivo [6] = conditions: mouse, iv, 3 mg/kg; remark: listed apart in the source
# in vivo [7] = conditions: mouse, iv, 3 mg/kg; remark: listed apart in the source
# in vivo [8] = conditions: mouse, po, 3 mg/kg; remark: listed apart in the source
# Mus musculus = species on record: Mus musculus; conditions: in vivo, po, 3 mg/kg
# [9] = molecular target: T1, Tyrosine-protein kinase receptor TYRO3 (Homo sapiens, UniProt Q06418)
# T1 sequence (Q06418 whole entry): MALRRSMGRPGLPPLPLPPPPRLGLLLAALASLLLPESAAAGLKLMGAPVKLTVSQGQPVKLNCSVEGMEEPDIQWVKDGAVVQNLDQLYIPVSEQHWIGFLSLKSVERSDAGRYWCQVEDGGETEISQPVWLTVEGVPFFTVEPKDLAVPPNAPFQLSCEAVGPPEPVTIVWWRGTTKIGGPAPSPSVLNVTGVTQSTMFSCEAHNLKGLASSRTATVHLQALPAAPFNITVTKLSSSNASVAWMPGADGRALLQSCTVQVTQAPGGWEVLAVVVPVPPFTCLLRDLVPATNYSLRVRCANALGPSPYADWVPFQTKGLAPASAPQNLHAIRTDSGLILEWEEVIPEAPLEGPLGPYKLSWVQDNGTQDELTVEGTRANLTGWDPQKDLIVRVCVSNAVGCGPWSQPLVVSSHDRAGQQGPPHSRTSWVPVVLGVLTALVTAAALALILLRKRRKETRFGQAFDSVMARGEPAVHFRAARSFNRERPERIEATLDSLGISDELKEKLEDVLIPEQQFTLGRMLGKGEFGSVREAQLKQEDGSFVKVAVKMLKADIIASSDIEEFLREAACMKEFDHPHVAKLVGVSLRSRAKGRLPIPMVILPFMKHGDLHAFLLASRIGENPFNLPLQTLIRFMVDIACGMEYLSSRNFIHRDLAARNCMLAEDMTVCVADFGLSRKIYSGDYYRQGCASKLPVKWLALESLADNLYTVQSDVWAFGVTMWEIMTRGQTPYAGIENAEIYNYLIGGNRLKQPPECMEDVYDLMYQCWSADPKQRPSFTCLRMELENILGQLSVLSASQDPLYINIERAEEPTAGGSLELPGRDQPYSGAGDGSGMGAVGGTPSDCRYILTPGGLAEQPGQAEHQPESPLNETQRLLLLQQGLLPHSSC
# [10] = molecular target: T2, Tyrosine-protein kinase receptor UFO (Homo sapiens, UniProt P30530)
# T2 sequence (P30530 whole entry): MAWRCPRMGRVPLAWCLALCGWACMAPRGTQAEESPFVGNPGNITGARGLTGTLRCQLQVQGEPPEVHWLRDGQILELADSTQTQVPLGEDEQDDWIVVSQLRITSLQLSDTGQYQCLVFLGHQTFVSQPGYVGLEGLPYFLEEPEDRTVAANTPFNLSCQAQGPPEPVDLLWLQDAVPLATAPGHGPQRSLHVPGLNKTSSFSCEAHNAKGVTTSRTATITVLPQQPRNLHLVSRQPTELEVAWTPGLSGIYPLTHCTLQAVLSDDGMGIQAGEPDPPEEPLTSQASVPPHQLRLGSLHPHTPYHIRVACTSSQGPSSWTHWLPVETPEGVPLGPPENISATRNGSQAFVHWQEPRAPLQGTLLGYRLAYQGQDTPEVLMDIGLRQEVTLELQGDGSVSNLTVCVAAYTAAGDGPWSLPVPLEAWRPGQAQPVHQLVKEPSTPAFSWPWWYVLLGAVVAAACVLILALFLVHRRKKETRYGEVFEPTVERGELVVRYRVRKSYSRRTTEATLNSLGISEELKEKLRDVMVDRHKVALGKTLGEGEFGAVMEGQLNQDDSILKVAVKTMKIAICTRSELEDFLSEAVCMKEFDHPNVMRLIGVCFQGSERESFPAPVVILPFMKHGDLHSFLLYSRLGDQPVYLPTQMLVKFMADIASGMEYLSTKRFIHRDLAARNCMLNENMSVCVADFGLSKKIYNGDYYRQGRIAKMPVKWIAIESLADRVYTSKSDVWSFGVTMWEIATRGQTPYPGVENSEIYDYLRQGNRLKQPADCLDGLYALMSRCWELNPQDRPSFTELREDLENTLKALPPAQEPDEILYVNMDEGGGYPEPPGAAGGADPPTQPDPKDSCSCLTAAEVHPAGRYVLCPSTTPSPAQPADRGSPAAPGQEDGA
SMILES,Cmax (in vivo [1]) [ng/mL],Cmax (in vivo [2]) [ng/mL],AUC(0-t) (in vivo [3]) [ng·h/mL],AUC(0-t) (in vivo [4]) [ng·h/mL],clearance (in vivo [5]) [mL/min/kg],half-life (in vivo [6]) [min],Vd (in vivo [7]) [L/kg],Tmax (in vivo [8]) [min],F (Mus musculus) [%],IC50 [9] [µM],IC50 [10] [µM]
CCCCNc1ncc(-c2ccc(S(=O)(=O)N3CCOCC3)cn2)c(N[C@H]2CC[C@H](O)CC2)n1,1980,13.9,355,4.68,134,54.6,2.9,15,1.3,,
CCCCNc1nccc(N[C@H]2CC[C@H](O)CC2)n1,,,,,,,,,,> 30,> 30
CCCCNc1ncc(-c2ccc(CN3CCOCC3)cn2)c(N[C@H]2CC[C@H](O)CC2)n1,1980,162,794,180,62.2,95.4,3.9,15,23,,
CCCCNc1ncc(-c2ccc(CNC3CC3)cn2)c(N[C@H]2CC[C@H](O)CC2)n1,277,33,376,103,130,283,39,30,27,,
O[C@H]1CC[C@H](Nc2nc(NCc3ccccc3)ncc2-c2ccccn2)CC1,,,,,,,,,,,> 30
CSc1ncc(-c2ccccn2)c(N[C@H]2CC[C@H](O)CC2)n1,,,,,,,,,,> 30,> 30
CCCCNc1ncc(-c2ccc(CN3CCC(F)(F)CC3)cn2)c(N[C@H]2CC[C@H](O)CC2)n1,737,71,381,210,123,178,13.7,15,55,,
CCCCNc1ncc(-c2ccc(F)cc2)c(N[C@H]2CC[C@H](O)CC2)n1,,,,,,,,,,> 30,
